Data taken from US20230257429A1, “PEPTIDE ADJUVANT FOR ITS THERAPEUTIC APPLICATIONS IN VIRAL AND TUMOUR VACCINE DEVELOPMENT AND CANCER IMMUNOTHERAPY AND AUTOIMMUNE DISEASE DIAGNOSIS AND TREATMENTS” (National University of Singapore, priority 2020, published 2023).
Peptide text beside a SMILES is read from it.

Experiments:
red blood cells (RBC) = experiment: Hemolytic assay; format: cell-based, human; conditions: 1 hr at 37° C., normalized to Triton X-100
Protocol: Buffy coats were used as a source of red blood cells (RBC). Buffy coat (2 ml) was washed first in 10 ml of 150 mM NaCl and then washed twice in PBS (pH 7.4) by centrifugation for 5 min at 500 g. The cell pellets were resuspended in 10 ml of PBS as RBC stocks. The different peptides were diluted in PBS (100 μg/ml) and, in triplicates, the peptides were added to V-bottom 96-well plates at 10 μl/well. As controls, the same volumes of PBS or 20% (v/v) Triton X-100 were added. RBC were diluted 50 times in PBS and added to the plates at 190 μl/well. After incubation for 1 hr at 37° C., the plates were centrifuged for 5 min at 500 g. The supernatants (100 μl/well) were transferred to flat bottom plates and absorbance was measured at OD405. Data were normalized to the average OD405 readings obtained with 1% (v/v) Triton X-100 and presented as percentage hemolysis.

monocytes [1] = experiment: Monocyte activation, TNFα and IL-1β ELISA; format: cell-based, human
Protocol: (§1) Buffy coat fractions were obtained from healthy blood donors at the Singapore Health Sciences Authority, with Institutional ethics approval, and PBMC were isolated using Ficoll-Paque (GE Healthcare). To isolate monocytes, PBMC were re-suspended to 1×10^7 cells/ml in the RPMI medium contained 5% (v/v) BCS and incubated for 1 hr in T75 flasks (20 ml/flask). Monocytes that adhered were harvested. To culture macrophages and DC [Cao, W., et al., Blood 107: 2777-2785, (2006), incorporated herein by reference], monocytes were resuspended to 1×10^6 cells/ml and cultured in 6-well plates (2 ml/well). Macrophages were cultured by adding M-CSF to 20 ng/ml and DC were cultured with 20 ng/ml GM-CSF and 40 ng/ml IL-4. M-CSF, GM-CSF and IL-4 were obtained from R&D Systems (Mineapolis, Minn.). Cells were cultured for 6 days with half of the media being replenished every two days.
[…] Where TLR ligands were used to stimulate these cells, they were added to the media: LPS (500 ng/ml for DC and macrophages and 10 ng/ml for PMBC and monocytes, InvivoGen), flagellin (1 μg/ml, InvivoGen), lipoteichic acid (LTA, 10 μg/ml). Cell activation was determined by measuring TNFα and IL-1β in the culture media using ELISA kits (Invitrogen).

[2] = tested on: dendritic cells (DC) and macrophages; conditions: Wu et al. 2021; cited from earlier work
TLR2 [3] = target: T1, TLR2 (Homo sapiens, UniProt O60603); experiment: TLR2 binding assay (ELISA plate); design: purchased R&D Systems; conditions: TLR2 coated 2 μg/ml
Target sequence in this assay (O60603 21-590 limits assumed): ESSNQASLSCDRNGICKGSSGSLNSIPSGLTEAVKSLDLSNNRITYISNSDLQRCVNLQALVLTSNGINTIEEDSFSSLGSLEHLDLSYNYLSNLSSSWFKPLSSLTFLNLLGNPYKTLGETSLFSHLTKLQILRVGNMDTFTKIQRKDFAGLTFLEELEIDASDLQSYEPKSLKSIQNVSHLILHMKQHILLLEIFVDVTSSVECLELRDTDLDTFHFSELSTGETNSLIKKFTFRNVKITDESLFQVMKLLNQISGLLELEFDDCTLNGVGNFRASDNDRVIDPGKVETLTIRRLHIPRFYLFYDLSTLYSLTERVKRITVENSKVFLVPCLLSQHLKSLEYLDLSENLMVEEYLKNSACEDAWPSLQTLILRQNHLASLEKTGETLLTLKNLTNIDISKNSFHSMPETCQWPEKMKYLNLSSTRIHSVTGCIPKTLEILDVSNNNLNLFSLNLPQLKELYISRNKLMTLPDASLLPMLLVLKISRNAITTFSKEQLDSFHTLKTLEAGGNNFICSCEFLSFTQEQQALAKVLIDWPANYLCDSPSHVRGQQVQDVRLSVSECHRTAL

PBMC [4] = experiment: Peptide binding to and penetration of PBMC, flow cytometry; format: cell-based, human; conditions: for cell surface binding of peptide at 37° C.: PBMC gated for monocytes, B cells, T cells; for cell surface binding of peptide at 37° C. / intracellular peptide at 37° C.: 1 hr; for intracellular peptide at 4° C.: B cells and T cells, permeabilized; for intracellular peptide at 37° C.: permeabilized cells
Protocol: PBMC re-suspended in 100 μl macrophage serum free media (3×10^6/ml) were incubated with different peptides (200 μg/ml). PBMC (100 μl) were incubated with the peptides for 1 hr at 37° C. or 4° C. Cells were washed twice in 2% FBS/PBS and incubated with streptavidin-AF488 and Zombie (NIR) Fixable viability stain-APC-Cy7 for 30 min at 4° C. Cells were then fixed with 1% PFA for 30 min at room temperature and analysed using the Fortessa analyser (BD). In some experiments, PBMC were, after incubation with peptides, incubated with Zombie (NIR) Fixable viability stain (APC-Cy7) for 30 min at 4° C. Cells were then fixed and permeabilized with BD CYTOFIX/CYTOPERM™ Kit for 20 min at 4° C., and then incubated with streptavidin-AF488 for 30 min at 4° C. In some experiments, PBMC were, after incubation with the peptides, stained with fluorescent mouse antibodies specific for monocytes (CD14/BV711), T cells (CD3/PerCP-Cy5-5) and B cells (CD19/Pacific blue). Cells were then stained with Zombie (NIR) Fixable viability stain-APC-Cy7 and streptavin-AF488, with or without membrane permeabilization. In these experiments, monocytes, T cells and B cells were separately gated to detect surface peptide binding and intracellular peptide penetration.

PBMC [5] = experiment: PBMC activation, TNFα and IL-1β ELISA; format: cell-based, human; conditions: protein coated on plates, 24 hr, ELISA
Protocol: as §1
(§2) Purified proteins in PBS (30 μg/ml) were coated in triplicates in 96-well plates (50 μl/well) for 12 hr and PBMC (3×10^6 cells/ml), monocytes (1×10^6 cells/ml), macrophages (0.5×10^6 cells/ml) or DC (0.5×10^6 cells/ml) were re-suspended in macrophage serum-free medium containing penicillin and streptomycin and cultured for 24 hr in these plates at 100 μl/well. Where TLR ligands were used to stimulate these cells, they were added to the media: LPS (500 ng/ml for DC and macrophages and 10 ng/ml for PMBC and monocytes, InvivoGen), flagellin (1 μg/ml, InvivoGen), lipoteichic acid (LTA, 10 μg/ml). Cell activation was determined by measuring TNFα and IL-1β in the culture media using ELISA kits (Invitrogen).

PBMC [6] = experiment: PBMC activation, TNFα and IL-1β ELISA; format: cell-based, human; conditions: 2.5, 5.0, 10, 14, 18 and 24 hr
TLR4/CD14/MD2 = target: T2, TLR4/CD14/MD2 (Homo sapiens, UniProt O00206); experiment: TLR and NF-κB-luciferase assay in 293T cells, TLR4/CD14/MD2; format: cell-based; conditions: on top of high TLR4 autoactivation
T2 construct: expressed in transfected cells; host or cells: human embryonic kidney 293T cells
T2 sequence (O00206 24-839): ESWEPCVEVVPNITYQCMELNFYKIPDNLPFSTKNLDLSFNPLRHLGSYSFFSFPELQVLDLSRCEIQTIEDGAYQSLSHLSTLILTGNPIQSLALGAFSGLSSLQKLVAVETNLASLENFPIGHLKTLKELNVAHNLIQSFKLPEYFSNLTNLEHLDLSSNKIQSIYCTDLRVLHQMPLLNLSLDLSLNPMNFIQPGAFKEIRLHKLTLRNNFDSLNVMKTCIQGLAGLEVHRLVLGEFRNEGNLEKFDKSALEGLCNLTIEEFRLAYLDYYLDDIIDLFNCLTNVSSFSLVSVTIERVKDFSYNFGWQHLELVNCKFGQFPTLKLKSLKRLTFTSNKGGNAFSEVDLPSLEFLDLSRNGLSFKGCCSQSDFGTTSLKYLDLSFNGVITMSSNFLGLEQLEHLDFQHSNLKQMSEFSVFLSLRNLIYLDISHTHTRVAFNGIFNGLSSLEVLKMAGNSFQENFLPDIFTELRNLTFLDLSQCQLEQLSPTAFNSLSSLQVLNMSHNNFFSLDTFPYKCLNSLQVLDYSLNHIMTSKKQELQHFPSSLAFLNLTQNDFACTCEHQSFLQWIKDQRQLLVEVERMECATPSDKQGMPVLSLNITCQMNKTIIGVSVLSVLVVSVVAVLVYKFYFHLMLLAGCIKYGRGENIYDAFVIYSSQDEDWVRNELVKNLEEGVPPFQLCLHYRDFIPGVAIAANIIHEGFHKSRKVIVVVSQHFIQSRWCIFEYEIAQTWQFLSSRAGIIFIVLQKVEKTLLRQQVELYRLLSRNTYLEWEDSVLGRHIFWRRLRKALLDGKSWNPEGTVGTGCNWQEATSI
T2 sequence (Q9Y6Y9 19-160 partner): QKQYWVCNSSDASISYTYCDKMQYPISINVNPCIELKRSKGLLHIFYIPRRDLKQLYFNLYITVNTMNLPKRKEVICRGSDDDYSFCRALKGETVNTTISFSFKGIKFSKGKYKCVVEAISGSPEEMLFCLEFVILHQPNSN
Protocol: (§3) TLR-mediated NF-κB activation was determined using a Dual Luciferase Reporter Assay (Promega), in which two luciferase reporter plasmids were used. One plasmid expresses the firefly luciferase under the regulation of inducible NF-κB promoter and the other plasmid expresses the Renilla luciferase under a constitutively active CMV promoter [Zhang, H., et al., FEBS Lett 532: 171-176 (2002)]. Besides these luciferase vectors, cells were co-transfected with vectors coding for human TLRs or, in the case of TLR4, co-transfected with CD14 and MD2 [according to Zhang, H., et al., J. FEBS Lett 532: 171-176 (2002), incorporated herein by reference]. Transfection was performed using the TurboFect Transfection Reagent (Thermo Fisher Scientific). After 24 hr, cells were harvested and cultured for 24 hr in 96-well plates coated with the purified proteins or, as controls, cultured in blank plates but stimulated with TLR ligands. Cells were lysed to measure both firefly and Renilla luciferase activities and, in each sample, the firefly activity was normalized to the Renilla luciferase activity and expressed as relative NF-κB activation. […]

TLR5 = target: T3, TLR5 (Homo sapiens, UniProt O60602); experiment: TLR and NF-κB-luciferase assay in 293T cells, TLR5; format: cell-based; conditions: protein-coated plates
T3 construct: expressed in transfected cells; host or cells: human embryonic kidney 293T cells
T3 sequence (O60602 21-858): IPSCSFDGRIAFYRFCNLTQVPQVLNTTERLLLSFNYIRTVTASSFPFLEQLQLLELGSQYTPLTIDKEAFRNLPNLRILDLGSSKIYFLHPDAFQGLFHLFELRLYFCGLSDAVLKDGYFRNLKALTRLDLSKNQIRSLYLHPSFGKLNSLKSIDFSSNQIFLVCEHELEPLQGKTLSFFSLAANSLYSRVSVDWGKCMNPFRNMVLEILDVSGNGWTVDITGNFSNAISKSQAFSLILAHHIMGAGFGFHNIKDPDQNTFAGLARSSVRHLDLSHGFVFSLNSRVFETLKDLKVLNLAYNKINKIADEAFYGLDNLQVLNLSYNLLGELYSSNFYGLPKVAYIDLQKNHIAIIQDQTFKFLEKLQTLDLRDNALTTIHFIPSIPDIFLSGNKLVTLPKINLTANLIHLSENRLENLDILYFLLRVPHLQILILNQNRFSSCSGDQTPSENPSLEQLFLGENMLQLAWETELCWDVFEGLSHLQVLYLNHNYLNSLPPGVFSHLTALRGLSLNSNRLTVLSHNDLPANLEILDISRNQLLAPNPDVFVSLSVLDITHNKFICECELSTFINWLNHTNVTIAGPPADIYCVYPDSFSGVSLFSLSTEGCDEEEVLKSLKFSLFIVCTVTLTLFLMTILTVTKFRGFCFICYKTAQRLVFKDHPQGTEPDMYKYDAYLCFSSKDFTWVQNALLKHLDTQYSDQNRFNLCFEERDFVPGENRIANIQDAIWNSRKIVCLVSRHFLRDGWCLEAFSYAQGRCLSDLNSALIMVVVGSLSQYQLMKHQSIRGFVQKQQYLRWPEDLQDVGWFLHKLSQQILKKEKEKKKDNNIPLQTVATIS
Protocol: as §3

monocytes [7] = experiment: TLR-blocking antibody pre-incubation before stimulation, TNFα; format: cell-based, human; conditions: monocytes pre-incubated with blocking antibody
Protocol: In some experiments, cells were pre-treated with the MyD88 inhibitor st-2825 (MedChemExpress) or the Caspase-1 inhibitor Ac-YVAD (InvivoGen) for 1 hr before stimulation with TLR ligands or the purified nuclear proteins. In some other experiments, cells were pre-incubated for 1 hr with anti-TLR2, TLR4 and TLR5 antibodies (InvivoGen) before stimulation. The optimal st-2825 and Ac-YVAD concentrations were determined based on both their effects on cell viability and LPS-induced cytokine production. Cell viability was determined using the CELLTITER 96® AQueous One Solution Cell Proliferation (MTS) Assay (Promega).
Therefore, TLR2 is clearly a sensing receptor for NCL as well as HMGB1. We then further analyzed the contribution of TLR2, TLR4 and TLR5 to NCL and HMGB1 recognition in their natural cellular contexts. Monocytes were pre-incubated with antibodies that were known to block each of these TLRs and then stimulated with the respective microbial ligands i.e. lipoteichoic acid (LTA), LPS and flagellin (FIG. 3E). […] NCL is a 710-amino acid protein and it is interesting to identify the specific NCL region that activates TLR2.

TLR2 [8] = target: T1, TLR2; experiment: TLR and NF-κB-luciferase assay in 293T cells, TLR2/TLR1/TLR6/TLR10; format: cell-based; design: expressed in transfected cells; host or cells: human embryonic kidney 293T cells
Protocol: TLR-mediated NF-κB activation was determined using a Dual Luciferase Reporter Assay (Promega), in which two luciferase reporter plasmids were used. […] Transfection was performed using the TurboFect Transfection Reagent (Thermo Fisher Scientific). After 24 hr, cells were harvested and cultured for 24 hr in 96-well plates coated with the purified proteins or, as controls, cultured in blank plates but stimulated with TLR ligands. Cells were lysed to measure both firefly and Renilla luciferase activities and, in each sample, the firefly activity was normalized to the Renilla luciferase activity and expressed as relative NF-κB activation.
TLRs and, where it required, co-receptors were co-transfected in a total of 4 combinations, i.e. TLR2/1/6/10, TLR4/CD14/MD2, TLR5, or TLR3/7/8/9. Two luciferase expression vectors were used: one expresses the firefly luciferase under 5 repeats of the NF-κB gene promoter and the other expresses the Renilla luciferase under the constitutively active CMV promoter (FIG. 3A).
Target sequence in this assay (O60603 21-784): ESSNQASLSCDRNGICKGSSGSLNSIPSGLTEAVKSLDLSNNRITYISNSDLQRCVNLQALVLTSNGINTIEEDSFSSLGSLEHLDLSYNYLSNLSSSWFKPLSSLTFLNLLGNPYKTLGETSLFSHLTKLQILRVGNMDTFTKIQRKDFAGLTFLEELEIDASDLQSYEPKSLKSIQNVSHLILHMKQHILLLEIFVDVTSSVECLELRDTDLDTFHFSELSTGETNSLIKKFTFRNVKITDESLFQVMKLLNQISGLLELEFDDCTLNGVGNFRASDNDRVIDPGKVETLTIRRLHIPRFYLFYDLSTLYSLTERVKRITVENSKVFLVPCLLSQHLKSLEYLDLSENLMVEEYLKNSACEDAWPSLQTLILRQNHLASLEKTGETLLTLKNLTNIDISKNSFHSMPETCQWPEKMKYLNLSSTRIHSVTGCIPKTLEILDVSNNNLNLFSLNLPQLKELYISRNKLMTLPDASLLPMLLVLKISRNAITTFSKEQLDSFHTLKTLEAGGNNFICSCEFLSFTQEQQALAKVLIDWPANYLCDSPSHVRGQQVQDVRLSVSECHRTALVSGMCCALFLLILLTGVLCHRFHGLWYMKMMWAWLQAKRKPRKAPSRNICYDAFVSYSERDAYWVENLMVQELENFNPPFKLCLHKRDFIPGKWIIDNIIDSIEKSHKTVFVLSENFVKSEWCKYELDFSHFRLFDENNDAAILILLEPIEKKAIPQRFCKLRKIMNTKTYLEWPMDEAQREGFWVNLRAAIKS

[9] = tested on: dendritic cells (DC) and macrophages; experiment: DC and macrophage activation, cytokine ELISA; format: cell-based, human; conditions: protein coated on plates
Protocol: as §1
as §2, with “Where TLR ligands were used to stimulate these cells, they were added to the media: LPS (500 ng/ml for DC and macrophages and 10 ng/ml for PMBC and monocytes, InvivoGen), flagellin (1 μg/ml, InvivoGen), lipoteichic acid (LTA, 10 μg/ml).” left out

Molecule: CC[C@H](C)[C@H](NC(=O)[C@H](CCCNC(=N)N)NC(=O)[C@H](CCCNC(=N)N)NC(=O)[C@H](CCCNC(=N)N)NC(=O)[C@H](CC(C)C)NC(=O)[C@@H](NC(=O)[C@@H](NC(=O)[C@H](CC(C)C)NC(=O)[C@@H](N)CC(C)C)[C@@H](C)CC)[C@@H](C)CC)C(=O)N[C@@H](CCCNC(=N)N)C(=O)N[C@@H](CCCCN)C(=O)N[C@@H](CCC(N)=O)C(=O)N[C@@H](C)C(=O)N[C@@H](Cc1c[nH]cn1)C(=O)N[C@@H](C)C(=O)N[C@@H](Cc1c[nH]cn1)C(=O)N[C@@H](CO)C(=O)N[C@@H](CCCCN)C(=O)O [CPP5, LLIILRRRIRKQAHAHSK] (H-LLIILRRRIRKQAHAHSK-OH)
- haemolysis (red blood cells (RBC)): clearly haemolytic

Molecule: GGFGGRGGGRGGRGGFGGRGRGGFGGRGGFRGGRGG (NCL-P2)
- alarmin activity compared with NCL-P1 (monocytes [1]; monocytes): stronger alarmin activity than NCL-P1
- cytokine induction, soluble versus coated (immobilized) form (monocytes [1]; monocytes, 24 hr): induced more cytokines than immobilized peptides
- cytokines induced by plate-coated peptide compared with NCL-P1 (monocytes [1]; monocytes, peptides coated on plates): induced more cytokines than NCL-P1
- TNFα induced relative to NCL-P1 (monocytes [1]; monocytes, soluble peptide 40 μg/ml): approximately 10 fold
- TNFα induction from monocytes (7 NCL peptides) (monocytes [1]; peptides 50 or 200 μg/ml, 24 hr): induced TNFα
- TNFα induction from monocytes at lower concentrations (monocytes [1]; soluble peptide 10 and 20 μg/ml): induced little TNFα
- TNFα induction from monocytes at higher concentrations (monocytes [1]; soluble peptide 80 and 160 μg/ml): strongly induced TNFα production
- DC activation judged by TNFα induction [2]: activate DC
- concentration at which saturated TLR2 binding was reached (TLR2 [3]): 3.2 µg/mL
- peptide binding to coated TLR2 (TLR2 [3]; biotin peptides at increasing concentrations): dose-dependent and saturable binding to TLR2
- intracellular pool / cell penetration (CPP activity) in PBMC (PBMC [4]; 1 hr at 4° C., fixed/permeabilized, streptavidin-AF488): accumulate intracellular pools
- cell surface binding of peptide at 37° C. (PBMC [4]): the majority of monocytes and smaller fractions of B and T cells
- cell surface binding of peptide at 37° C. (PBMC [4]; listed as P2): surface binding was only prominent on PBMC and monocytes
- intracellular peptide at 4° C. (PBMC [4]; monocytes): similarly high intracellular pools of the peptide
- intracellular peptide at 4° C. (PBMC [4]; monocytes, listed as P2): similarly high levels of intracellular P2 peptide irrespective of the temperature of incubation
- surface-bound peptide at 4° C. (PBMC [4]; monocytes, compared with 37° C.): increased significantly
- intracellular peptide at 37° C. (PBMC [4]): much higher level of the peptide was detected in all PBMC
- intracellular peptide at 37° C. (PBMC [4]; listed as P2): similarly high levels of intracellular P2 peptide irrespective of the temperature of incubation

Molecule: HMGB1: HMGB1 purified from T×NE as an alarmin control
- TNFα and IL-1β production from PBMC (PBMC [5]): HMGB1 did
- TNFα and IL-1β production from monocytes (monocytes [1]; protein coated on plates, 24 hr, ELISA): HMGB1 did
- kinetics of IL-1β induction from PBMC (PBMC [6]): rapidly surged to plateau
- kinetics of TNFα induction from PBMC (PBMC [6]): linear early increase but a noticeable late surge
- NF-κB activation via TLR4/CD14/MD2 (TLR4/CD14/MD2): marginal but significant additional TLR4 activation
- NF-κB activation via TLR5 (TLR5): consistently activated TLR5
- effect of TLR2 antibody on TNFα production induced by the protein (monocytes [7]): significantly inhibited
- effect of TLR4 antibody on TNFα production induced by the protein (monocytes [7]): significantly inhibited
- effect of TLR5 antibody on TNFα production induced by the protein (monocytes [7]): significantly inhibited
- TLR2 response when expressed without TLR1/TLR6/TLR10 or co-expressed with TLR5 (TLR2 [8]): not significantly affected
- NF-κB activation via TLR2/TLR1/TLR6/TLR10 combination (TLR2 [8]; protein-coated plates, 24 hr): prominent activation
- cytokine production from dendritic cells (DC) and macrophages [9]: also induced cytokine production
